Tests used:
CD8+ T cells = assay: In vitro immunogenicity: T-cell priming with aAPCs loaded with peptide/MHC and anti-CD28, pMHC multimer readout; type: cell-based, human; details: for Wells positive [%]: percentage of positive wells among evaluable, HLA-A*02 restricted peptides
Excerpt: In order to obtain information regarding the immunogenicity of the TUMAPs of the present invention, the inventors performed investigations using an in vitro T-cell priming assay based on repeated stimulations of CD8+ T cells with artificial antigen presenting cells (aAPCs) loaded with peptide/MHC complexes and anti-CD28 antibody.
In order to perform in vitro stimulations by artificial antigen presenting cells loaded with peptide-MHC complex (pMHC) and anti-CD28 antibody, the inventors first isolated CD8+ T cells from fresh HLA-A*02 leukapheresis products via positive selection using CD8 microbeads (Miltenyi Biotec, Bergisch-Gladbach, Germany) of healthy donors obtained from the University clinics Mannheim, Germany, after informed consent. PBMCs and isolated CD8+ lymphocytes were incubated in T-cell medium (TCM) until use consisting of RPMI-Glutamax (Invitrogen, Karlsruhe, Germany) supplemented with 10% heat inactivated human AB serum (PAN-Biotech, Aidenbach, Germany), 100 U/ml Penicillin/100 μg/ml Streptomycin (Cambrex, Cologne, Germany), 1 mM sodium pyruvate (CC Pro, Oberdorla, Germany), 20 μg/ml Gentamycin (Cambrex). 2.5 ng/ml IL-7 (PromoCell, Heidelberg, Germany) and 10 U/ml IL-2 (Novartis Pharma, Nürnberg, Germany) were also added to the TCM at this step. Generation of pMHC/anti-CD28 coated beads, T-cell stimulations and readout was performed in a highly defined in vitro system using four different pMHC molecules per stimulation condition and 8 different pMHC molecules per readout condition.
The purified co-stimulatory mouse IgG2a anti human CD28 Ab 9.3 (Jung et al., 1987) was chemically biotinylated using Sulfo-N-hydroxysuccinimidobiotin as recommended by the manufacturer (Perbio, Bonn, Germany). Beads used were 5.6 μm diameter streptavidin coated polystyrene particles (Bangs Laboratories, Illinois, USA).
pMHC used for positive and negative control stimulations were A*0201/MLA-001 (peptide […] (SEQ ID NO. 289) from modified Melan-A/MART-1) and A*0201/DDX5-001 ([…] from DDX5, SEQ ID NO. 290), respectively.
800.000 beads/200 μl were coated in 96-well plates in the presence of 4×12.5 ng different biotin-pMHC, washed and 600 ng biotin anti-CD28 were added subsequently in a volume of 200 μl. Stimulations were initiated in 96-well plates by co-incubating 1×10^6 CD8+ T cells with 2×10^5 washed coated beads in 200 μl TCM supplemented with 5 ng/ml IL-12 (PromoCell) for 3 days at 37° C. Half of the medium was then exchanged by fresh TCM supplemented with 80 U/ml IL-2 and incubating was continued for 4 days at 37° C. This stimulation cycle was performed for a total of three times. For the pMHC multimer readout using 8 different pMHC molecules per condition, a two-dimensional combinatorial coding approach was used as previously described (Andersen et al., 2012) with minor modifications encompassing coupling to 5 different fluorochromes. Finally, multimeric analyses were performed by staining the cells with Live/dead near IR dye (Invitrogen, Karlsruhe, Germany), CD8-FITC antibody clone SK1 (BD, Heidelberg, Germany) and fluorescent pMHC multimers. For analysis, a BD LSRII SORP cytometer equipped with appropriate lasers and filters was used. Peptide specific cells were calculated as percentage of total CD8+ cells. Evaluation of multimeric analysis was done using the FlowJo software (Tree Star, Oregon, USA). In vitro priming of specific multimer+CD8+ lymphocytes was detected by comparing to negative control stimulations.

HLA-A*02:01 = HLA-A*02:01 (Homo sapiens, UniProt P04439, D140Y/D185E/D98H/E176V/E277Q/G131W/G231S/I119V/I121R/I166T/I218V/L300P/L318F/N151K/N90K/P208A/P217A/Q86G/Q94H/R138H/R169H/T345S); assay: MHC binding assay: UV-ligand exchange with beta2m ELISA (peptide exchange yield); details: binding to HLA-A*02:01, β2m ELISA
Method in brief: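 UV-cleavable peptide in HLA monomers exchanged for test peptide by UV irradiation; exchange yield measured by streptavidin-capture ELISA with HRP anti-β2m (TMB, 450 nm) on 100-fold diluted complexes. Quantified against refolded HLA-A*02:01/MLA-001 standards (15-500 ng/ml).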

Substance | Peptide exchange (MHC class I binding score, peptide exchange yield) (HLA-A*02:01) | donors (CD8+ T cells; percentage of positive donors, in vitro priming of CD8+ T cells of healthy HLA-A*02 donors) | Wells positive [%] (CD8+ T cells) | wells (CD8+ T cells; percentage of positive wells, in vitro priming of CD8+ T cells of healthy HLA-A*02 donors)
288 (SLYKGLLSV; listed as Homo sapiens) [compound 288] |  | ++++ (> = 70% = ++++) |  | 
157 (ILQDGQFLV; listed as Homo sapiens) [compound 157] |  |  | + (<20% = +) | 
34 (TLNTLDINL; listed as Homo sapiens) [compound 34] | +++ (= ≥50% = +++) |  | ++++ (> = 70% = ++++) | 
254 (ALGDKFLLRV; listed as Homo sapiens) [compound 254] |  |  | + (<20% = +) | 
17 (GLLPSAESIKL; listed as Homo sapiens) [compound 17] |  |  | + (<20% = +) | 
287 (KIQEILTQV; listed as Homo sapiens) [compound 287] |  |  |  | + (<20% = +)
264 (TLHDQVHLL; listed as Homo sapiens) [compound 264] |  |  | + (<20% = +) | 
29 (KMISAIPTL; listed as Homo sapiens) [compound 29] |  |  | + (<20% = +) | 
121 (ALYVQAPTV; listed as Homo sapiens) [compound 121] |  |  | + (<20% = +) | 
257 (KLIDHQGLYL; listed as Homo sapiens) [compound 257] | +++ (= ≥50% = +++) |  | + (<20% = +) | 
89 (SLAETIFIV; listed as Homo sapiens) [compound 89] | +++ (= ≥50% = +++) |  | + (<20% = +) | 
77 (ALYGNVQQV; listed as Homo sapiens) [compound 77] | +++ (= ≥50% = +++) |  | + (<20% = +) | 
50 (ILLSVLHQL; listed as Homo sapiens) [compound 50] | +++ (= ≥50% = +++) |  | + (<20% = +) | 
35 (VIIKGLEEI; listed as Homo sapiens) [compound 35] |  |  | + (<20% = +) | 
102 (GLYPVTLVGV; listed as Homo sapiens) [compound 102] | +++ (= ≥50% = +++) |  | + (<20% = +) | 
246 (ALAGIVTNV; listed as Homo sapiens) [compound 246] | +++ (= ≥50% = +++) |  | + (<20% = +) | 
9 (SLITGQDLLSV; listed as Homo sapiens) [compound 9] | +++ (= ≥50% = +++) |  | + (<20% = +) | 
236 (KMSELQTYV; listed as Homo sapiens) [compound 236] | +++ (= ≥50% = +++) |  | + (<20% = +) | 
97 (KLFEKSTGL; listed as Homo sapiens) [compound 97] | +++ (= ≥50% = +++) |  | + (<20% = +) | 
66 (AMFPDTIPRV; listed as Homo sapiens) [compound 66] |  |  | + (<20% = +) | 

The next lines start with results.

Peptide exchange (MHC class I binding score, peptide exchange yield) (HLA-A*02:01) | Substance | donors (CD8+ T cells; percentage of positive donors, in vitro priming of CD8+ T cells of healthy HLA-A*02 donors) | Wells positive [%] (CD8+ T cells) | wells (CD8+ T cells; percentage of positive wells, in vitro priming of CD8+ T cells of healthy HLA-A*02 donors)
+++ (= ≥50% = +++) | 267 (YLLDMPLWYL; listed as Homo sapiens) [compound 267] |  | + (<20% = +) | 
+++ (= ≥50% = +++) | 263 (SIIEYLPTL; listed as Homo sapiens) [compound 263] |  | + (<20% = +) | 
+++ (= ≥50% = +++) | 4 (VLFGELPAL; listed as Homo sapiens) [compound 4] |  | + (<20% = +) | 
+++ (= ≥50% = +++) | 14 (YTFSGDVQL; listed as Homo sapiens) [compound 14] |  | + (<20% = +) | 
+++ (= ≥50% = +++) | 101 (SLLEVNEASSV; listed as Homo sapiens) [compound 101] |  | + (<20% = +) | 
+++ (= ≥50% = +++) | 39 (YLEDGFAYV; listed as Homo sapiens) [compound 39] |  | ++++ (> = 70% = ++++) | 
+++ (= ≥50% = +++) | 233 (SLFESLEYL; listed as Homo sapiens) [compound 233] |  | + (<20% = +) | 
+++ (= ≥50% = +++) | 260 (ALNESLVEC; listed as Homo sapiens) [compound 260] |  | + (<20% = +) | 
+++ (= ≥50% = +++) | 255 (FLMKNSDLYGA; listed as Homo sapiens) [compound 255] |  | + (<20% = +) | 
+++ (= ≥50% = +++) | 242 (KLQEEIPVL; listed as Homo sapiens) [compound 242] |  | + (<20% = +) | 
+++ (= ≥50% = +++) | 27 (GLLGKVTSV; listed as Homo sapiens) [compound 27] |  | + (<20% = +) | 
